Values quoted from earlier work as cited in patent US20030064122A1 (priority 2001, published 2003).

System: nasal mucosa of men and women
Conditions: introduced to the nasal mucosa of men and women

COc1cc(CNC(=O)CCCCC=CC(C)C)ccc1O [Capsaicin, 8-Methyl-N-vanillyl-6-nonenamide]
amount shown to induce secretion, sneezing, and/or cough: 75 micrograms
